From patent publication US12570675B2, “Boronic acid compounds” (LG CHEM, LTD., priority 2020, dated 2026)

Tests used:
[1] = biological target: Proteasome chymotrypsin-like activity (S26 protein from RPMI8226 cells) (Homo sapiens, UniProt P28074); format: biochemical; conditions: S26 protein from RPMI8226 cell extract 2 ug/well, substrate 20 uM, 37° C., 90 minutes; read-out: Proteasome chymotrypsin-like activity inhibition IC50
Procedure, shortened: (§1)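 S26 proteasome fraction from homogenized RPMI8226 myeloma cells in 20 mM Tris-HCl pH 8.0 (2 ug extract/well) incubated 90 min at 37 °C with compound serially diluted from 10 uM (0.5% DMSO).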

[2] = biological target: Proteasome caspase-like activity (S26 protein from RPMI8226 cells) (Homo sapiens (Human), UniProt P28072); experiment: Proteasome caspase-like activity inhibition (Z-Leu-Leu-Glu-AMC fluorogenic substrate, RPMI8226 cell extract); format: biochemical; conditions: S26 protein from RPMI8226 cell extract 2 ug/well, substrate 20 uM, 37° C., 90 minutes
Procedure, shortened: as §1

Proteasome chymotrypsin-like activity (S26 protein from RPMI8226 cells), sequence (P28074 60-263 limits assumed): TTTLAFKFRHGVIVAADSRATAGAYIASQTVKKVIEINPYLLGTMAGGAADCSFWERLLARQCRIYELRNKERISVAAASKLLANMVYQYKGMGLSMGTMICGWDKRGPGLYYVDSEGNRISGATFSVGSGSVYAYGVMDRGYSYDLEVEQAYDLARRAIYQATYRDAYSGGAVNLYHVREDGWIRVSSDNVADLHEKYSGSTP
Proteasome caspase-like activity (S26 protein from RPMI8226 cells), sequence (P28072 whole entry): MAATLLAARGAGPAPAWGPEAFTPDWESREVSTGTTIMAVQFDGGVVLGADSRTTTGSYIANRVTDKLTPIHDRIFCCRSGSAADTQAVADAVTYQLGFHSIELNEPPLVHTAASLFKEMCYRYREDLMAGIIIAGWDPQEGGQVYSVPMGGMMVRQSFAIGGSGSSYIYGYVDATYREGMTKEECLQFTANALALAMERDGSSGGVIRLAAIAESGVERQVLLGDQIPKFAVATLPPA

## CC(C)C[C@H](NC(=O)C1CC(CNC(=O)c2cccc3c2CCCC3)=NO1)B(O)O (stereo partly drawn) [Example 63, ((1R)-3-methyl-1-(3-((5,6,7,8-tetrahydronaphthalen-1-carboxamido)methyl)-4,5-dihydroisoxazol-5-carboxamido)butyl)boronic acid]
[1]
  IC50: < 0.01 µM
[2]
  IC50: > 0.5 µM

## CC(C)C[C@H](NC(=O)C1(Cc2ccccc2)CC([C@H](CC(C)C)NC(=O)c2nccc3ccccc23)=NO1)B(O)O (stereo partly drawn) [Example 152, ((1R)-1-(5-benzyl-3-((S)-1-(isoquinolin-1-carboxamido)-3-methylbutyl)-4,5-dihydroisoxazol-5-carboxamido)-3-methylbutyl)boronic acid]
[1]
  IC50: < 0.01 µM
[2]
  IC50: > 1 µM

## CC(C)C[C@H](NC(=O)C1(Cc2ccccc2)CC(CNC(=O)c2cccc3cccnc23)=NO1)B(O)O (stereo partly drawn) [Example 113, ((1R)-1-(5-benzyl-3-((quinolin-8-carboxamido)methyl)-4,5-dihydroisoxazol-5-carboxamido)-3-methylbutyl)boronic acid]
[1]
  IC50: < 0.01 µM
[2]
  IC50: > 0.5 µM

## CC(C)C[C@H](NC(=O)C1(Cc2ccccc2)CC(CNC(=O)c2nn(C(C)C)c3ccccc23)=NO1)B(O)O (stereo partly drawn) [Example 202, ((1R)-1-(5-benzyl-3-((1-isopropyl-1H-indazol-3-carboxamido)methyl)-4,5-dihydroisoxazol-5-carboxamido)-3-methylbutyl)boronic acid]
[1]
  IC50: < 0.01 µM
[2]
  IC50: > 0.5 µM

## CC(C)C[C@H](NC(=O)C1(Cc2ccccc2)CC(CNC(=O)c2cccc(Cl)n2)=NO1)B(O)O (stereo partly shown) [Example 308]
[1]
  IC50: < 0.01 µM
[2]
  IC50: > 0.5 µM

## CC(C)C[C@H](NC(=O)C1(Cc2ccc(F)cc2F)CC(CNC(=O)c2nccc3ccccc23)=NO1)B(O)O (stereo partly drawn) [Example 178, ((1R)-1-(5-(2,4-difluorobenzyl)-3-((isoquinolin-1-carboxamido)methyl)-4,5-dihydroisoxazol-5-carboxamido)-3-methylbutyl)boronic acid]
[1]
  IC50: < 0.01 µM
[2]
  IC50: > 1 µM

## CC(C)C[C@H](NC(=O)C1(Cc2cccc(F)c2)CC(CNC(=O)c2nccc3ccccc23)=NO1)B(O)O (stereo partly drawn) [Example 187, ((1R)-1-(5-(3-fluorobenzyl)-3-((isoquinolin-1-carboxamido)methyl)-4,5-dihydroisoxazol-5-carboxamido)-3-methylbutyl)boronic acid]
[1]
  IC50: < 0.01 µM
[2]
  IC50: > 0.5 µM

## Cc1nc2ccccn2c1C(=O)NCC1=NOC(Cc2ccccc2)(C(=O)N[C@@H](CC(C)C)B(O)O)C1 (stereo partly drawn) [Example 133, ((1R)-1-(5-benzyl-3-((2-methylimidazo[1,2-a]pyridin-3-carboxamido)methyl)-4,5-dihydroisoxazol-5-carboxamido)-3-methylbutyl)boronic acid]
[1]
  IC50: < 0.01 µM
[2]
  IC50: > 0.5 µM

## CC(C)C[C@H](NC(=O)C1(Cc2ccccc2)CC(CNC(=O)c2cccc3[nH]ccc23)=NO1)B(O)O (stereo partly drawn) [Example 127, ((1R)-1-(3-((1H-indol-4-carboxamido)methyl)-5-benzyl-4,5-dihydroisoxazol-5-carboxamido)-3-methylbutyl)boronic acid]
[1]
  IC50: < 0.01 µM
[2]
  IC50: > 0.5 µM

## Cc1cnc(COCC2=NOC(Cc3ccccc3)(C(=O)N[C@@H](CC(C)C)B(O)O)C2)cn1 (stereo partly drawn) [Example 48, ((1R)-1-(5-benzyl-3-(((5-methylpyrazin-2-yl)methoxy)methyl)-4,5-dihydroisoxazol-5-carboxamido)-3-methylbutyl)boronic acid]
[1]
  IC50: < 0.025 µM
[2]
  IC50: > 0.25 µM

## CC(C)C[C@H](NC(=O)C1(Cc2ccccc2)CC(CNC(=O)c2ccnn2C2CCCC2)=NO1)B(O)O (stereo partly drawn) [Example 189, ((1R)-1-(5-benzyl-3-((1-cyclopentyl-1H-pyrazol-5-carboxamido)methyl)-4,5-dihydroisoxazol-5-carboxamido)-3-methylbutyl)boronic acid]
[1]
  IC50: < 0.01 µM
[2]
  IC50: > 1 µM
